According to ChEMBL document CHEMBL1201862, “PubChem BioAssay data set” (2004):
Calls of active or inactive are those of the source.

Columns and labels:
DNA topoisomerase = biological target: T1, DNA topoisomerase (Yersinia pestis, UniProt A0A2S9PM60); assay: Y. pestis Topo-I inhibitors, cleavage product readout, dose response, biochemical, cherry-pick (AID 588525)
T1 sequence (A0A2S9PM60 whole entry): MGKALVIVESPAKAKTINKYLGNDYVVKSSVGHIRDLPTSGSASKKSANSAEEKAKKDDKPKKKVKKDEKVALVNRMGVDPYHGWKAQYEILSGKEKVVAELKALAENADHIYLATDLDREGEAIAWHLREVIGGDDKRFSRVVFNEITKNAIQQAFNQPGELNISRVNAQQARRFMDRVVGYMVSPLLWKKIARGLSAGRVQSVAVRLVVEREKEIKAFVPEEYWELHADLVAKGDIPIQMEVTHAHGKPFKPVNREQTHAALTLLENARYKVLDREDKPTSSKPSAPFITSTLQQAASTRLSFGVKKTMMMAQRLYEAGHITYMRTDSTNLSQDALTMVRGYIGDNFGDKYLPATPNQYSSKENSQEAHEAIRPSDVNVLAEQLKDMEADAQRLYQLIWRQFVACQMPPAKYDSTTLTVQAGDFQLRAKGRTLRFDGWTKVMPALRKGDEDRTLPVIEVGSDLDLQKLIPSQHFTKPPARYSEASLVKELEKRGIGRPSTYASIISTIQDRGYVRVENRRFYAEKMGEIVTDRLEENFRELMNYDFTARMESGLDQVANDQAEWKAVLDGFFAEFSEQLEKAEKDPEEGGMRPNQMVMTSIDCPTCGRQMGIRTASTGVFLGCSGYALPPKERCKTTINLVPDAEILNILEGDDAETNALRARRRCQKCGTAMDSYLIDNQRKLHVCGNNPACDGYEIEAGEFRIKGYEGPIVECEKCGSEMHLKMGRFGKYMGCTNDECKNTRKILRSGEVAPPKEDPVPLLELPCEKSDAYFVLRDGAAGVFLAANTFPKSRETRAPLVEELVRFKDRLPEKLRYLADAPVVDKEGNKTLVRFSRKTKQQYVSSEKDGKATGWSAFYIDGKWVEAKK

Phospholipase A2 = Phospholipase A2 (Homo sapiens, UniProt P04054); format: functional;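 also: confirmatory dose-response counterscreen on phospholipase A2, testing hits that came from an ultra-high-throughput screen for ATG4B inhibitors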
Chain of Phospholipase A2 (P04054 whole entry): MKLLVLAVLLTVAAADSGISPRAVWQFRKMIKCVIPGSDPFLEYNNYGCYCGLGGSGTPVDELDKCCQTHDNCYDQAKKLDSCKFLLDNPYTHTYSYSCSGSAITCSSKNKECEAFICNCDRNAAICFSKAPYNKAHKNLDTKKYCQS

Cysteine protease ATG4B = biological target: T2, Cysteine protease ATG4B (Homo sapiens, UniProt Q9Y4P1); format: functional;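 also: Fluorescence-based dose-response confirmation assay measuring inhibition of ATG4B activity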
T2 sequence (Q9Y4P1 whole entry): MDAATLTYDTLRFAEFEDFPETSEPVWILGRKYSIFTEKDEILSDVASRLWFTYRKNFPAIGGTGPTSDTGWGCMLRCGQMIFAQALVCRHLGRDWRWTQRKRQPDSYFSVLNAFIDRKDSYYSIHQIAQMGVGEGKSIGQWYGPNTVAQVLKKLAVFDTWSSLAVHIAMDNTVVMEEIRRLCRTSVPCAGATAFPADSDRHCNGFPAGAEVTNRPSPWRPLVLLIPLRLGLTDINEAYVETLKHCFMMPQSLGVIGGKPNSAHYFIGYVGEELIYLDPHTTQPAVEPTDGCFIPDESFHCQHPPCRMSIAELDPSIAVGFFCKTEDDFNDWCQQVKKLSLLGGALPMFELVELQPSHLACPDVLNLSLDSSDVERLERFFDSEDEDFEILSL

Cytochrome P450 2C9 = Cytochrome P450 2C9 (Homo sapiens, UniProt P11712)
Chain of Cytochrome P450 2C9 (P11712 whole entry): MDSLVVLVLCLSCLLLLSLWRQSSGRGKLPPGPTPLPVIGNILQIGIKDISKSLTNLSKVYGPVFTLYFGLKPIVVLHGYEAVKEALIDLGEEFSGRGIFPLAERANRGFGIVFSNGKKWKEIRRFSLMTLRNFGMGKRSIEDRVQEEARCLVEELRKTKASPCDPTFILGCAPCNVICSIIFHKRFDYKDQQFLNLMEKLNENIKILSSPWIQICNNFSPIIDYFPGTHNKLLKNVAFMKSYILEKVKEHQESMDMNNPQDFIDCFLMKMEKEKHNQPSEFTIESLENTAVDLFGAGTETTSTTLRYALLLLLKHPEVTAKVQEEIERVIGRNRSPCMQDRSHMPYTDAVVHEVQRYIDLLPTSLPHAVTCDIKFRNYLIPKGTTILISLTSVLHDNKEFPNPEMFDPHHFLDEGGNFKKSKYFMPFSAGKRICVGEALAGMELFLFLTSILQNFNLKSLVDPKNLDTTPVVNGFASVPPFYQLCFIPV

Beta-galactosidase = Beta-galactosidase (Escherichia coli, UniProt Q8VNN2); assay: PubChem AID 485352; format: functional
Chain of Beta-galactosidase (Q8VNN2 whole entry): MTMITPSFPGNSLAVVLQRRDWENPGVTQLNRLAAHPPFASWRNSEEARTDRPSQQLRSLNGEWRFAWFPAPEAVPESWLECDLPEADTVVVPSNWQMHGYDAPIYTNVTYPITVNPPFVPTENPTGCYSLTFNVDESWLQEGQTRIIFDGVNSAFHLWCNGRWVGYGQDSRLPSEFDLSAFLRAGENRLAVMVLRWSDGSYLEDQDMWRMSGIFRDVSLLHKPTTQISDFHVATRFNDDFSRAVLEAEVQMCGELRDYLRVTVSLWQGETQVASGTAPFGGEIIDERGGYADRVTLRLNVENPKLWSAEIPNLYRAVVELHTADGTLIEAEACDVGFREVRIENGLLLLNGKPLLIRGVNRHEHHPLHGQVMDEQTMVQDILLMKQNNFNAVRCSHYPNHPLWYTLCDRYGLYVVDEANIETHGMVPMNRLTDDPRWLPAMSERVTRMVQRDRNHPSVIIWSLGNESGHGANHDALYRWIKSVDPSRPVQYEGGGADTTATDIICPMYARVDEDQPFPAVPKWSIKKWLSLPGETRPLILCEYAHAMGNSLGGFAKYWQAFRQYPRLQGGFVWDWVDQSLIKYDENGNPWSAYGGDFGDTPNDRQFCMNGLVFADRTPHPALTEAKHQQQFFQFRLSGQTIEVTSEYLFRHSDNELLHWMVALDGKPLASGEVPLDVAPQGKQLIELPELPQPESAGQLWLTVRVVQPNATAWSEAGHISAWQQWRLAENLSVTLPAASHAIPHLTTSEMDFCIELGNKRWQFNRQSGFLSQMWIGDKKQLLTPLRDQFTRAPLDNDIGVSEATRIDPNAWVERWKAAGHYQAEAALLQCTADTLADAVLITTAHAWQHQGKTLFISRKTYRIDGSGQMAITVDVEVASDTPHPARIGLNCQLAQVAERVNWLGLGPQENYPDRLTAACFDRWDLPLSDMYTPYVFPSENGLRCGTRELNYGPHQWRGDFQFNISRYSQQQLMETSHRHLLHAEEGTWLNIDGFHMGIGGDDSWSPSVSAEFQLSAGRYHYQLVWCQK

[1] = biological target: T3, Type-1 angiotensin II receptor (Homo sapiens, UniProt P30556); assay: AT1 receptor antagonists, dose response, selectivity assay for APJ receptor antagonist project, cell-based, uHTS hits (AID 463214); format: functional;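 also: antagonist potency against angiotensin II stimulated AT1 response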
T3 sequence (P30556 whole entry): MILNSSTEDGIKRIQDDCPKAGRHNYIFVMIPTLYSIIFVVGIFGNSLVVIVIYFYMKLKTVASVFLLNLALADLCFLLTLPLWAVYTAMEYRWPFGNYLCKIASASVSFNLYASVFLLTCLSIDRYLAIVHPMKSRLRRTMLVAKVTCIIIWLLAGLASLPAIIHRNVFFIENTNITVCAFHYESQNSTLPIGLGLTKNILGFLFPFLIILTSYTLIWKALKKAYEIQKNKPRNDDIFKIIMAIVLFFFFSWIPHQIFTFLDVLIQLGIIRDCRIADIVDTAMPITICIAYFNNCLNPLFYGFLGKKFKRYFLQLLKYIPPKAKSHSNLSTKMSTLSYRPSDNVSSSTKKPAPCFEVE

[2] = biological target: T4, Endoribonuclease toxin MazF (Escherichia coli K-12, UniProt P0AE70); assay: fluorescent RNA oligo signal without MazF, dose response, counter-screen for MazEF activator project, biochemical, fluorescence, single-stranded RNase substrate (AID 588502); format: functional
T4 sequence (P0AE70 whole entry): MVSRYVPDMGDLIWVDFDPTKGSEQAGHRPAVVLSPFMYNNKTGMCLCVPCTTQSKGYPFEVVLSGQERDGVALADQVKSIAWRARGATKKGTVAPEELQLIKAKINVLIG

[3] = biological target: T5, Polyadenylate-binding protein 1 (Homo sapiens, UniProt P11940); assay: PABP1 MLLE–PAM2 binding inhibitor potency, dose response, biochemical, fluorescence polarization, FITC-PAM2 peptide (AID 602259); format: functional; settings: read-out: IC50_Mean
T5 sequence (P11940 whole entry): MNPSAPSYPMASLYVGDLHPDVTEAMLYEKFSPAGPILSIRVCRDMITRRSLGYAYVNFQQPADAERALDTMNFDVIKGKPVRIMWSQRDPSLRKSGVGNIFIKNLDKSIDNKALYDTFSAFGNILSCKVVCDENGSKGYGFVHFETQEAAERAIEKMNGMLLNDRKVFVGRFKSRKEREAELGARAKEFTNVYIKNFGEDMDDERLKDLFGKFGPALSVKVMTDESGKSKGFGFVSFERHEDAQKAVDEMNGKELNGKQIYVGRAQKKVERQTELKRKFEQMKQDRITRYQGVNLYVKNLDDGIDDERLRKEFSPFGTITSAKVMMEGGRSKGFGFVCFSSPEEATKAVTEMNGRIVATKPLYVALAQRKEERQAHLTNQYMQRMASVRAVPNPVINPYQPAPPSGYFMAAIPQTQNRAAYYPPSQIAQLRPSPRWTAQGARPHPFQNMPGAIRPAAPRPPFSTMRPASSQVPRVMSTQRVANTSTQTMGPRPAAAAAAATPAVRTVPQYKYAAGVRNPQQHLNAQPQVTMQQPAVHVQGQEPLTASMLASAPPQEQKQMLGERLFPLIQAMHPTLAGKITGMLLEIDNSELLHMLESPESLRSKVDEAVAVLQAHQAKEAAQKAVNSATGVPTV

[4] = biological target: T4, Endoribonuclease toxin MazF; assay: MazF toxin RNase activators, dose response, biochemical, fluorescence, single-stranded RNA substrate, uHTS hits (AID 588481); format: functional
[5] = biological target: T5, Polyadenylate-binding protein 1; assay: PABP1 MLLE–PAM2 interaction inhibitors, dose response, miRNA deadenylation inhibitor project, biochemical, fluorescence polarization, Cy5-PAM2 peptide, secondary (AID 602260); format: functional; settings: read-out: IC50_Mean
[6] = biological target: Heat shock protein HSP 90-alpha (Homo sapiens, UniProt P07900); format: functional, organism-based
Prothrombin = Prothrombin (Homo sapiens, UniProt P00734); assay: Thrombin 1536 HTS Dose Response Confirmation. [Related pubchem assays: 1046 (Thrombin 1536 HTS; hits were confirmed in this assay)]; format: functional
[7] = biological target: T6, Sentrin-specific protease 7 (Homo sapiens, UniProt Q9BQF6); format: functional;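 also: Luminescence-based dose-response confirmation of ultra-high-throughput screening hits, measuring inhibition of SENP7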
T6 sequence (Q9BQF6 whole entry): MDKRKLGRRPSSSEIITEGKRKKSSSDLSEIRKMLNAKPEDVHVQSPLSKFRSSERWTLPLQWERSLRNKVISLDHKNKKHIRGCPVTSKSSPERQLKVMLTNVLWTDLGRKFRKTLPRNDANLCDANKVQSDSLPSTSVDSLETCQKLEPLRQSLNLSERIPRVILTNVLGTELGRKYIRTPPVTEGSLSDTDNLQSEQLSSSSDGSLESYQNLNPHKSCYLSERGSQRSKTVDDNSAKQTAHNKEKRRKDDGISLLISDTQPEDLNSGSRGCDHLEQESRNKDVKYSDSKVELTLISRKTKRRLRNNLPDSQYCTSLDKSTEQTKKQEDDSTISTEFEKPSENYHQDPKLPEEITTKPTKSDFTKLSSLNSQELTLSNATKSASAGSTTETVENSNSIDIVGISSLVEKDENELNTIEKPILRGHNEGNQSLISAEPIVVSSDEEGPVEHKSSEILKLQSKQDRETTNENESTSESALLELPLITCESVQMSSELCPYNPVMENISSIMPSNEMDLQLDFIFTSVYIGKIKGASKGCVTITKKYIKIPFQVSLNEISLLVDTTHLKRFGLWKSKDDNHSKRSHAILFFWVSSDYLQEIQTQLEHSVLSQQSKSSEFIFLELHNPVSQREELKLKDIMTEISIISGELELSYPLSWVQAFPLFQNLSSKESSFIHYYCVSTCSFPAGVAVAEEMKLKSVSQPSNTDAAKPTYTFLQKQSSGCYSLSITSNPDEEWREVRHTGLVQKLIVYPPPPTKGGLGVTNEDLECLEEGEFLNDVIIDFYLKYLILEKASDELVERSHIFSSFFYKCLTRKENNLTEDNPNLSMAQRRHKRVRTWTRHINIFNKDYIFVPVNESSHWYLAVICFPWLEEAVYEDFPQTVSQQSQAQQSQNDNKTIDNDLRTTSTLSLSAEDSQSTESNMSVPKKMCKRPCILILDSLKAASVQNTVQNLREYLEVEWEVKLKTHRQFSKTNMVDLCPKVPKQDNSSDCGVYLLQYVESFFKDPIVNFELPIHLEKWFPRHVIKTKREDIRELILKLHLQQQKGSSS

[8] = biological target: Luciferin 4-monooxygenase (Photinus pyralis, UniProt P08659); assay: firefly luciferase enzyme inhibitors, dose response, biochemical, luminescence (AID 1891)
Chain of Luciferin 4-monooxygenase (P08659 whole entry): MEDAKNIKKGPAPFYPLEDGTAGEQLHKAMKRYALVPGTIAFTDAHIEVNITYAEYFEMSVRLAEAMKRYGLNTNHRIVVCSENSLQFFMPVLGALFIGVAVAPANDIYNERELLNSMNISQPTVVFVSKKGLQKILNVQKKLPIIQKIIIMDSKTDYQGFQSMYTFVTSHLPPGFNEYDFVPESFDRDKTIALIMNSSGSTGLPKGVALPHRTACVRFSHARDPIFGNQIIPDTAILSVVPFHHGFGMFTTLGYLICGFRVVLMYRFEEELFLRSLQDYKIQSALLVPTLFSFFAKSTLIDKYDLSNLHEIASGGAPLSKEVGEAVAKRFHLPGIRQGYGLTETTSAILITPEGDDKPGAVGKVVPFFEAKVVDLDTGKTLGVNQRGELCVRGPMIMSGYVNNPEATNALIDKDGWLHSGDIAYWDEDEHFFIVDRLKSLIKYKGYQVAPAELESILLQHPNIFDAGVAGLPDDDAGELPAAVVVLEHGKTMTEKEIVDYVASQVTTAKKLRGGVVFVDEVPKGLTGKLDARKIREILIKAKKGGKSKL

[9] = biological target: T7, Sentrin-specific protease 8 (Homo sapiens, UniProt Q96LD8); format: functional;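 also: luminescence read-out of SENP8 inhibition, dose-response confirmation following an ultra-high-throughput screen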
T7 sequence (Q96LD8 whole entry): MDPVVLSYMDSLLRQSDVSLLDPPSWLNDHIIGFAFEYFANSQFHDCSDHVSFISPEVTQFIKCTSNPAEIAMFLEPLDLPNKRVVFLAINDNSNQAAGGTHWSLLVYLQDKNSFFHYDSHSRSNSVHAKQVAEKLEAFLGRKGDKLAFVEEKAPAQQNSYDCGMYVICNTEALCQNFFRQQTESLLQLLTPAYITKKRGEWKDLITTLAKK

Caspase-3 = biological target: T8, Caspase-3 (Homo sapiens, UniProt P42574); format: functional;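 also: Dose-response selectivity test against caspase-3 for candidate inhibitors of sentrin-specific proteases (SENPs)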
T8 sequence (P42574 whole entry): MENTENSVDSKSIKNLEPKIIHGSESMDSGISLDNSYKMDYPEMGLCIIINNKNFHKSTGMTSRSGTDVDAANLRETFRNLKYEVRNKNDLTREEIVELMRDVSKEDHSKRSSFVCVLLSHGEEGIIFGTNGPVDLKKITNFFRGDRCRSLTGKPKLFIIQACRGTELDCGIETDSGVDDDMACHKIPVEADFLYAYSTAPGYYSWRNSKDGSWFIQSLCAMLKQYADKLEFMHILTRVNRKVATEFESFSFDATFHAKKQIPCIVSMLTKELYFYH

[10] = Luminescence Cell-Based Dose Confirmation HTS to Identify Inhibitors of Platelet Dense Granule Release. [Related pubchem assays: 1663 (Primary HTS), 1678 (Summary of Project)]; format: functional
[11] = biological target: T9, Sentrin-specific protease 6 (Homo sapiens, UniProt Q9GZR1); format: functional;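 also: Luminescence-based dose-response confirmatory assay of SENP6 inhibition, following up an ultra-high-throughput screen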
T9 sequence (Q9GZR1 whole entry): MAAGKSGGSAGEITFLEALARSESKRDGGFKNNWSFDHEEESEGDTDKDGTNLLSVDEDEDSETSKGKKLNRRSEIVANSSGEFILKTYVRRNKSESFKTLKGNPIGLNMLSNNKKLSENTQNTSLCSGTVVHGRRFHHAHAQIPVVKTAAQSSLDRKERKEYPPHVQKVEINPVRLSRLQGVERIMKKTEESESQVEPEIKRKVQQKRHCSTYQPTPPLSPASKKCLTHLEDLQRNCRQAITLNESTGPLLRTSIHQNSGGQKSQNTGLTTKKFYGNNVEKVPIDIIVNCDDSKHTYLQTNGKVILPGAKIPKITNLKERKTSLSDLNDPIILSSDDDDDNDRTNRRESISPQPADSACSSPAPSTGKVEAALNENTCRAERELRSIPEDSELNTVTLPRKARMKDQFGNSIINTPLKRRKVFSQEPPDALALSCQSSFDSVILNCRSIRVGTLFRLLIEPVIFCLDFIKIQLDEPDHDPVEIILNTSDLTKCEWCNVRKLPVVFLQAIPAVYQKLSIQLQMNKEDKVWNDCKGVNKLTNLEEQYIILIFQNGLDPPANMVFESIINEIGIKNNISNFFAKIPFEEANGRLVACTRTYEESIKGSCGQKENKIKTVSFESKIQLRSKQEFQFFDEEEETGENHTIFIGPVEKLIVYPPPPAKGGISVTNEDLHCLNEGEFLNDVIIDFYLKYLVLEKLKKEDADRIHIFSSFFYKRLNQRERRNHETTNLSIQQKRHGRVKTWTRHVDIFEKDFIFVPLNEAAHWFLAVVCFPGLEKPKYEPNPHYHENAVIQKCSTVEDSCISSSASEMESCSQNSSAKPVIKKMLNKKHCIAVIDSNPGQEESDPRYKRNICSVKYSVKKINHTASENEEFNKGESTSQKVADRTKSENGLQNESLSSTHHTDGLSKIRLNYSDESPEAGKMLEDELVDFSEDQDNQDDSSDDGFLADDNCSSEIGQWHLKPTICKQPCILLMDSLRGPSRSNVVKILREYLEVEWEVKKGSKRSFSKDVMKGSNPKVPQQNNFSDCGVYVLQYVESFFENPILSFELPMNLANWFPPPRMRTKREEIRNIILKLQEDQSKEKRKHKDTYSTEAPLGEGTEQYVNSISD

| Compound | AC50 (DNA topoisomerase) | IC50 (Phospholipase A2) | IC50 (Cysteine protease ATG4B) | EC50 [2] | EC50 [4] | other results |
| --- | --- | --- | --- | --- | --- | --- |
| COc1cc2c(cc1OC)C1=NC(=O)CN1C(SCc1ccc(C)cc1)=N2 | 13.8 µM (active) | – | – | – | – | – |
| O=C(NCc1cccc(C(F)(F)F)c1)c1cc(Cl)cc(Cl)c1 | – | 2.38 µM (active) | 41 µM (inactive) | – | – | AC50 (Cytochrome P450 2C9): inconclusive |
| CCCCCn1c(SCCC(C)C)nc2c1c(=O)[nH]c(=O)n2C | > 38 µM (inactive) | – | – | – | – | – |
| C=CCn1c(SCc2cc(C(C)=O)ccc2OCC)nc2ccccc2c1=O | – | 1.3 µM (active) | 5.1 µM (active) | – | – | – |
| Cc1ccccc1NCC(=O)c1ccc(Br)cc1 | 1.96 µM (active) | – | – | – | – | EC50 (Beta-galactosidase): > 40 µM (inactive); IC50 [1]: 8.62 µM (active) |
| O=C(NCc1cccc(C(F)(F)F)c1)N1CCN(S(=O)(=O)c2ccccc2F)CC1 | – | 7.61 µM (active) | 12.5 µM (active) | – | – | – |
| CCOC(=O)[C@H]1[C@H]2COc3ccc(Br)cc3[C@H]2N2C(=O)CN(Cc3ccc(C)cc3)C(=O)[C@@]12C | – | – | – | > 99 µM (inactive) | 4.72 µM (active) | IC50 [3]: 49.1 µM (inactive); IC50 [5]: > 66 µM (inactive) |
| Oc1ccc(Cl)cc1/C=C/c1ccc2cccc(O)c2n1 | – | – | – | > 99 µM (inactive) | 44.8 µM (inactive) | AC50 [6]: 3.87 µM (active); IC50 (Prothrombin): > 50 µM (not active) |
| COc1ccccc1/N=C/c1c(O)oc2ccccc2c1=O | – | – | – | – | – | IC50 [7]: 2.87 µM (active); EC50 [8]: 1.3 µM (active); IC50 [9]: > 100 µM (inactive); IC50 (Caspase-3): > 100 µM (inactive); EC50 [10]: > 112 µM (not active); IC50 [11]: > 100 µM (inactive) |
| COc1ccc(C(=O)n2nc(-c3ccco3)nc2SC)cc1OC | – | – | – | 45.8 µM (inactive) | > 99 µM (inactive) | IC50 (Prothrombin): 0.204 µM (active) |
